The source of these data is PubChem BioAssay (NCI).

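Compound exposure: 48 hours, 5 concentrations, 96-well plates. TGI marks complete inhibition of growth.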 Where only a bound is given, the exact number is not on record here.

Test systems include MDA-MB-231 breast; HCC-2998 colon; K-562 leukemia; SW-620 colon; SK-MEL-5 melanoma; NCI-H23 lung; RPMI-8226 leukemia; ACHN renal; MDA-N; BT-549 breast; A498 renal.
What all share (experiment): NCI anticancer screen, dose series, 48 h

As to `N#CCN1CCCCCc2ccccc21`, the TGI with MDA-MB-231 breast, in the assay on HCC-2998 colon, with K-562 leukemia, with SW-620 colon, in the assay with SK-MEL-5 melanoma and in the assay on NCI-H23 lung was greater than 100 µM throughout. In addition, the TGI in the assay on RPMI-8226 leukemia and in the assay on ACHN renal was greater than 100 µM each time.

For the compound `CC(=O)Nc1ccc(N2C(=O)CS(=O)(=O)C2c2cccc(Oc3ccccc3)c2)cc1` (stereo unspecified), the TGI with MDA-MB-231 breast came out at 36 µM; in the assay with K-562 leukemia it was 55 µM; in the assay on SW-620 colon, 80.5 µM; in the assay on MDA-N, 32.5 µM; with SK-MEL-5 melanoma, 28.7 µM; in the assay with NCI-H23 lung, 43.5 µM. The TGI is 32 µM in the assay on BT-549 breast and 36.3 µM in the assay with ACHN renal.

With `CC(=O)N1CC(C)(C)c2c1cc(C)c(O)c2C`, the TGI with MDA-MB-231 breast, with HCC-2998 colon, with K-562 leukemia, in the assay on A498 renal, in the assay on SW-620 colon and in the assay on MDA-N was greater than 100 µM in each case. Also, the TGI in the assay with SK-MEL-5 melanoma, in the assay with NCI-H23 lung, in the assay with RPMI-8226 leukemia and in the assay on ACHN renal was greater than 100 µM in each case.

As to `CCSCC(=O)N1CCc2c([nH]c3ccccc23)C1=O`, the TGI with MDA-MB-231 breast, with HCC-2998 colon, in the assay with K-562 leukemia, with SW-620 colon, with MDA-N and in the assay with SK-MEL-5 melanoma was greater than 100 µM each time. Besides, the TGI in the assay with NCI-H23 lung, in the assay with BT-549 breast and in the assay with ACHN renal was greater than 100 µM throughout.

Consider `C\C=C/C=C/C=C/C(=O)O`, for which the TGI in the assay with HCC-2998 colon, in the assay on K-562 leukemia, with A498 renal, in the assay with SW-620 colon, with SK-MEL-5 melanoma and with NCI-H23 lung was greater than 100 µM in each case. Besides, the TGI in the assay with RPMI-8226 leukemia and in the assay with ACHN renal was greater than 100 µM in each case.

For the compound `NC(CCl)=NC1CN2CCC1CC2` (stereo unspecified), the TGI in the assay with MDA-MB-231 breast, in the assay on K-562 leukemia, with A498 renal, with SW-620 colon, with MDA-N and in the assay with SK-MEL-5 melanoma was greater than 100 µM each time. Besides, the TGI with NCI-H23 lung, in the assay with BT-549 breast, with RPMI-8226 leukemia and with ACHN renal was greater than 100 µM in each case.

For the compound `N#Cc1nc(C(F)(F)F)oc1N`, the TGI in the assay on MDA-MB-231 breast, with HCC-2998 colon, with K-562 leukemia, with A498 renal, in the assay on SW-620 colon and in the assay on MDA-N was greater than 100 µM throughout. Besides, the TGI in the assay with SK-MEL-5 melanoma, in the assay on NCI-H23 lung, in the assay with RPMI-8226 leukemia and in the assay with ACHN renal was greater than 100 µM each time.

Regarding `Cc1ccc(S(=O)(=O)NC(=O)NC(Cc2ccccc2)C(=O)O)cc1` (stereo unspecified), the TGI with MDA-MB-231 breast, in the assay on K-562 leukemia, in the assay on SW-620 colon, in the assay with SK-MEL-5 melanoma, in the assay with NCI-H23 lung and in the assay with BT-549 breast was greater than 100 µM each time. Also, the TGI with RPMI-8226 leukemia and in the assay on ACHN renal was greater than 100 µM throughout.

With `CCOC(O)C(F)(F)F` (stereo unspecified), the TGI with MDA-MB-231 breast, in the assay on HCC-2998 colon, in the assay on K-562 leukemia, in the assay on SW-620 colon, in the assay on MDA-N and in the assay on SK-MEL-5 melanoma was greater than 100 µM throughout. The TGI in the assay with NCI-H23 lung and with ACHN renal was greater than 100 µM throughout.

As to `N#CN=C1c2ccccc2C(=NC#N)c2cc(CO)ccc21`, the TGI with MDA-MB-231 breast is greater than 100 µM; with K-562 leukemia, 80.7 µM; with A498 renal, 74.4 µM; in the assay on SW-620 colon, greater than 100 µM; with MDA-N it was greater than 100 µM; with SK-MEL-5 melanoma, greater than 100 µM. Besides, the TGI in the assay on NCI-H23 lung was greater than 100 µM; in the assay on BT-549 breast, 95.6 µM; with RPMI-8226 leukemia it was 31 µM; in the assay on ACHN renal, 74 µM.

Turning to `OCc1c2c(cc3c1CC1(C3)Cc3cc4c(c(CO)c3C1)CCC4)CCC2`, the TGI with MDA-MB-231 breast turned out to be 32.1 µM; in the assay on HCC-2998 colon, 35 µM; in the assay with K-562 leukemia it was 21.9 µM; in the assay on A498 renal, 30.3 µM; with MDA-N, 29.2 µM; in the assay on SK-MEL-5 melanoma it was 17.9 µM. For the same compound, the figures for the TGI in the assay with NCI-H23 lung, with RPMI-8226 leukemia and in the assay with ACHN renal were 29.8 µM, 47.5 µM and 22.6 µM, respectively.

As for `N#CC(c1nc2ccccc2s1)c1nc(Cl)ncc1Br` (stereo unspecified), the TGI with MDA-MB-231 breast is greater than 100 µM; in the assay with A498 renal it was greater than 100 µM; with SW-620 colon, greater than 100 µM; in the assay on MDA-N, greater than 100 µM; in the assay with SK-MEL-5 melanoma, 43.5 µM; with NCI-H23 lung it was 73.9 µM. The TGI with BT-549 breast was 80.5 µM; in the assay on RPMI-8226 leukemia it was 81.1 µM; in the assay on ACHN renal, greater than 100 µM.

Take `CCCN=C1Nc2ccccc2[C@@H]2N(C)c3ccccc3C(C)C[C@]12C` (stereo partly specified): the TGI was 29.8 µM in the assay on MDA-MB-231 breast; 26.3 µM with HCC-2998 colon; greater than 100 µM in the assay with K-562 leukemia; 28.6 µM in the assay with A498 renal; 36 µM in the assay with SW-620 colon; 38.7 µM with MDA-N. Besides, the TGI with SK-MEL-5 melanoma worked out at 29.2 µM; in the assay with NCI-H23 lung it was 37.3 µM; with RPMI-8226 leukemia, 41.7 µM; with ACHN renal, 60.5 µM.

`COC(=O)c1c(C)ccc2c(O)c3c(cc12)C(=O)c1c2c(cc(O)c1C3=O)C1(C)OC(C)(O2)C(O)C(N(C)C)C1O` (stereo unspecified): the TGI is 3.21 µM with MDA-MB-231 breast; 1.39 µM with HCC-2998 colon; 7.46 µM in the assay with A498 renal; greater than 100 µM in the assay with SW-620 colon; 2.58 µM in the assay on MDA-N; 17.3 µM in the assay with SK-MEL-5 melanoma. In addition, the TGI is 3.03 µM in the assay on NCI-H23 lung, 10.7 µM in the assay on BT-549 breast and 4.67 µM in the assay with ACHN renal.

`O=C1OC(C2Cc3ccccc3C2=O)c2ccccc21` (stereo unspecified): the TGI with MDA-MB-231 breast, in the assay with HCC-2998 colon, in the assay on K-562 leukemia, in the assay with SW-620 colon, with MDA-N and in the assay on SK-MEL-5 melanoma was greater than 100 µM in each case. In addition, the TGI with NCI-H23 lung, in the assay on BT-549 breast, in the assay with RPMI-8226 leukemia and in the assay on ACHN renal was greater than 100 µM each time.
